Experimental data reported in US7452549B2, “Synergistic antioxidant combination of delta tocols and polyphenols” (Nestec S.A., priority 2001, dated 2008).

Tested on: LDL fraction
Experiment: Oxidation of LDL in vitro (Cu2+-initiated, conjugated diene absorbance at 234 nm, lag phase)
Format: biochemical, human
Settings: for synergistic antioxidant properties in combination with TRF or purified δ-tocol: non-polyphenolic antioxidants
Protocol: Oxidation of LDL In Vitro Plasma was obtained from the blood of healthy male and female volunteers and was frozen. […] Tubes were then centrifuged at 400 000 g at 15° C. for 2 hours. The top fraction (chylomicrons+VLDL) was removed. […] After centrifugation at 400 000 g at 15° C. for 2 hours, the LDL fraction floating on the top was collected. […] The fractions were supplemented with ethanolic solutions containing various extracts or with the same volume of pure ethanol (control). Oxidation was initiated by adding freshly-prepared CuSO4 solution (25 μmol/l final concentration) at 37° C. The kinetics of the oxidation of lipoprotein was determined by continuously monitoring the change in absorbance at 234 nm (at 37° C.) on a UV/VIS spectrophotometer, which correlates with the increase in conjugated diene absorbance. […] The time required for the formation of diene is defined as the lag phase. The longer the lag phase the better the protection of LDL against oxidation. […] Concentration-response curves for the LDL oxidation assay were plotted separately for each of the tocol preparations, and for the water-soluble antioxidant preparations (see FIGS. 1 to 5). In each experiment, the tocotrienol content of the tocol preparations (TRF) was standardised to 0.05 or 0.1 μg/ml.

Row | Compound | synergistic antioxidant properties in combination with TRF or purified δ-tocol | synergistic effect with polyphenols in in vitro LDL oxidation studies | relative performance of δ-tocotrienol vs δ-tocopherol in in vitro LDL oxidation studies
1 | CC(=O)N[C@@H](CS)C(=O)O [N-acetylcysteine] | same lack of synergy |  | 
2 | O=C1O[C@H]([C@@H](O)CO)C(O)=C1O [ascorbic acid] | not to have synergistic antioxidant properties |  | 
3 | O=C(O)CCCCC1CCSS1 (stereo not drawn) [α-lipoic acid] | same lack of synergy |  | 
4 | Cc1cc(O)cc2c1O[C@](C)(CCC[C@H](C)CCC[C@H](C)CCCC(C)C)CC2 [δ-tocopherol] |  | remarkable synergistic effects | 
5 | CC(C)=CCC/C(C)=C/CC/C(C)=C/CC[C@]1(C)CCc2cc(O)cc(C)c2O1 [δ-tocotrienol] |  | remarkable synergistic effects | performs marginally better
